30 molecules from patent US8288438B2, “Methods for avoiding edema in the treatment or prevention of PPARγ-responsive diseases, including cancer” (Metabolex, Inc., priority 2005, dated 2012) can be followed below.

SMILES strings stand for the structures.

The subject of assay [1] is C57BL/6j ob/ob Mice. The assay is described as follows: anti-diabetic activities in the C57BL/6j ob/ob Mice model (Example 13). Type of assay: in vivo. Conditions: for Insulin Level compared with vehicle: ob/ob mice, oral gavage; for Potency (glucose lowering): oral gavage once a day for 1-4 days, 5 to 125 mg/kg, plasma glucose 6 hours after dose. Here is the method:
(§1) The anti-diabetic activities of the compounds were evaluated in the C57BL/6j ob/ob Mice model.
Male, 7-9 weeks old, C57BL/6J ob/ob mice were purchased from The Jackson Laboratory (Bar Harbor, Me., USA). Animals were housed (4-5 mice/cage) under standard laboratory conditions at 22±3° C. temperature and 50±20% relative humidity, and were maintained on a diet of Purina rodent chow and water ad libitum. Prior to treatment, blood was collected from the tail vein of each animal. Mice that had non-fasting plasma glucose levels between 250 and 500 mg/dl were used. Each treatment group consisted of 8-10 mice that were distributed so that the mean glucose levels were equivalent in each group at the start of the study. Mice were dosed orally by gavage once a day for 1-4 days with vehicle and one or more dose of test compound at a dose ranging from 5 to 125 mg/kg. compounds were delivered in a liquid formulation containing 5% (v/v) dimethyl sulfoxide (DMSO), 1% (v/v) Tween 80 (and 0.9% (w/v) methylcellulose. The gavage volume was 10 ml/kg. […] Food intake and body weight were measured daily. […] Louis, Mo., USA). Significant difference between groups (comparing drug-treated to vehicle-treated) was evaluated using the Student unpaired t-test. […]

Assay [2] relates to C57BL/6j ob/ob Mice. Kind of assay: anti-diabetic activities in the C57BL/6j ob/ob Mice model (Example 20). Conditions: for minimal effective dose: Mus musculus, oral gavage once a day for 1-4 days, plasma glucose 6 hours after dose, read-out: Potency (glucose lowering); for Insulin Level compared with vehicle: ob/ob mice, oral gavage. In kind it is in vivo. As for the experimental part: as §1
Male, 7-9 weeks old, C57BL/6J ob/ob mice were purchased from The Jackson Laboratory (Bar Harbor, Me., USA). Animals were housed (4-5 mice/cage) under standard laboratory conditions at 22±3° C. temperature and 50±20% relative humidity, and were maintained on a diet of Purina rodent chow and water ad libitum. Prior to treatment, blood was collected from the tail vein of each animal. Mice that had non-fasting plasma glucose levels between 250 and 500 mg/dl were used. Each treatment group consisted of 8-10 mice that were distributed so that the mean glucose levels were equivalent in each group at the start of the study. Mice were dosed orally by gavage once a day for 1-4 days with vehicle and one or more dose of test compound at a dose ranging from 5 to 125 mg/kg. compounds were delivered in a liquid formulation containing 5% (v/v) dimethyl sulfoxide (DMSO), 1% (v/v) Tween 80® and 0.9% (w/v) methylcellulose. The gavage volume was 10 ml/kg. Blood samples were taken at 6 hours after the each dose and analyzed for plasma glucose. Food intake and body weight were measured daily. Plasma glucose concentrations were determined colorimetrically using a commercial glucose oxidase method (Sigma Chemical Co, St. Louis, Mo., USA). Significant difference between groups (comparing drug-treated to vehicle-treated) was evaluated using the Student unpaired t-test.

As for `O=C(O)C(Oc1ccccc1-c1nc2ccccc2o1)c1ccc(Cl)cc1` (racemic) [Compound I-1], in assay [1], the “Insulin Level compared with vehicle” value is recorded as “Lower” and the “Potency (glucose lowering)” value was “++ (effective for glucose lowering at a dose of >25 mg/kg but <125 mg/kg)”.

Take `CC(=O)NCCOC(=O)C(Oc1cccc(C(F)(F)F)c1)c1ccccc1C(F)(F)F` (stereo not shown) [Compound 147]: in assay [2], the minimal effective dose is above 125 mg/kg and the “Insulin Level compared with vehicle” value is reported as “Lower”.

As for `O=C(O)C(Oc1ccc(C(F)(F)F)cn1)c1cccc(C(F)(F)F)c1` (stereo not shown) [Compound 100, (3-Trifluoromethyl-phenyl)-(5-trifluoromethyl-pyridin-2-yloxy)-acetic acid], in assay [2], the minimal effective dose is at most 125 mg/kg and the “Insulin Level compared with vehicle” value is “Lower”.

Take `O=C(O)C(Oc1ccc(C(F)(F)F)cc1Cl)c1cccc(C(F)(F)F)c1` (stereo not shown) [Compound 85]: in assay [2], the minimal effective dose is at most 125 mg/kg and the “Insulin Level compared with vehicle” value is reported as “Lower”.

Consider `O=C(O)C(Oc1ccc(C(F)(F)F)cc1Cl)c1ccc(C(F)(F)F)cc1` (stereo not shown) [Compound 89], for which, in assay [2], the minimal effective dose was at most 125 mg/kg and the “Insulin Level compared with vehicle” value was “Lower”.

With `OCC(Oc1ccc(C(F)(F)F)cc1)c1ccc(C(F)(F)F)cc1` (stereo not shown) [Compound 128], in assay [2], the minimal effective dose is at most 125 mg/kg and the “Insulin Level compared with vehicle” value was “Lower”.

`CC(Oc1ccc(C(F)(F)F)cc1-c1nc2ccccc2o1)(C(=O)O)c1ccccc1` (stereo not shown) [Ia-366]: the “Insulin Level compared with vehicle” value in assay [1] is recorded as “Lower”.

On to `O=C(O)C(Oc1ccc(C(F)(F)F)cc1-c1nc2ccccc2o1)c1ccccc1` (racemic) [Compound I-92], for which, in assay [1], the “Insulin Level compared with vehicle” value was “Lower” and the “Potency (glucose lowering)” value is “+++ (effective for glucose lowering at a dose of ≦25 mg/kg)”.

For `O=C(O)C(Oc1ccc(Cl)cc1-c1nc2ccccc2o1)c1cccc(C(F)(F)F)c1` (racemic) [Compound I-191], in assay [1], the “Insulin Level compared with vehicle” value is reported as “Lower” and the “Potency (glucose lowering)” value is given as “+++ (effective for glucose lowering at a dose of ≦25 mg/kg)”.

`O=C(O)C(Oc1ccc(C(F)(F)F)cc1)c1cccc(C(F)(F)F)c1` (single isomer, unassigned; (-)) [(−)-39, (4-trifluoromethyl-phenoxy)-(3-trifluoromethyl-phenyl)acetic acid]: in assay [2], the minimal effective dose was at most 125 mg/kg and the “Insulin Level compared with vehicle” value is given as “Lower”.

As to `COc1ccc(C(Oc2ccc(Cl)cc2-c2nc3ccccc3o2)C(=O)O)cc1` (racemic) [Compound I-193], in assay [1], the “Insulin Level compared with vehicle” value is reported as “Lower” and the “Potency (glucose lowering)” value is on record as “+++ (effective for glucose lowering at a dose of ≦25 mg/kg)”.

In the case of `CC(=O)NCCOC(=O)C(Oc1ccc(C(F)(F)F)cc1)c1cccc(C(F)(F)F)c1` (stereo not shown) [Compound 136, (4-trifluoromethyl-phenoxy)-(3-trifluoromethyl-phenyl)-acetic acid 2-acetylamino-ethyl ester], in assay [2], the minimal effective dose was at most 125 mg/kg and the “Insulin Level compared with vehicle” value is given as “Lower”.

In the case of `O=C(O)C(Oc1ccc(Cl)cc1-c1nc2ccccc2o1)c1ccc(Cl)cc1` (racemic) [Compound I-190], in assay [1], the “Insulin Level compared with vehicle” value is on record as “Lower” and the “Potency (glucose lowering)” value is on record as “+++ (effective for glucose lowering at a dose of ≦25 mg/kg)”.

With `O=C(O)C(Oc1ccc(C(F)(F)F)cc1-c1nc2ccccc2o1)c1ccc(Cl)cc1` (single isomer, unassigned) [Compound I-372], in assay [1], the “Insulin Level compared with vehicle” value is “Lower” and the “Potency (glucose lowering)” value was “+++ (effective for glucose lowering at a dose of ≦25 mg/kg)”.

On to `O=C(O)C(Oc1ccc(C(F)(F)F)cc1-c1nc2ccccc2o1)c1ccccc1` (stereo not shown) [Compound I-369], for which, in assay [1], the “Insulin Level compared with vehicle” value is given as “Lower” and the “Potency (glucose lowering)” value is recorded as “+++ (effective for glucose lowering at a dose of ≦25 mg/kg)”.

As for `O=C(O)C(Oc1ccc(C(F)(F)F)cc1)c1cccc(C(F)(F)F)c1` (racemic) [Compound 39, (4-trifluoromethyl-phenoxy)-(3-trifluoromethyl-phenyl)acetic acid], the “Insulin Level compared with vehicle” value in assay [2] is given as “Lower”.

For the molecule `O=C(O)C(Oc1ccc(C(F)(F)F)cc1-c1nc2ccccc2o1)c1cccc(C(F)(F)F)c1` (racemic) [Compound I-89], in assay [1], the “Insulin Level compared with vehicle” value was “Lower” and the “Potency (glucose lowering)” value was “+++ (effective for glucose lowering at a dose of ≦25 mg/kg)”.

As for `CC(Oc1ccc(C(F)(F)F)cc1)(C(=O)O)c1ccc(C(F)(F)F)cc1` (stereo not shown) [Compound 121, 2-(4-Trifluoromethyl-phenoxy)-2-(4-trifluoromethyl-phenyl)-propionic acid], in assay [2], the minimal effective dose was at most 125 mg/kg and the “Insulin Level compared with vehicle” value is given as “Lower”.

On to `CC(=O)NCCOC(=O)C(Oc1ccccc1C(F)(F)F)c1ccc(C(F)(F)F)cc1` (stereo not shown) [Compound 146], for which, in assay [2], the minimal effective dose was above 125 mg/kg and the “Insulin Level compared with vehicle” value is on record as “Lower”.

Consider `CC(=O)NCCOC(=O)C(Oc1ccc(C(F)(F)F)cc1)c1ccc(C(F)(F)F)cc1` (stereo not shown) [Compound 145], for which, in assay [2], the minimal effective dose is at most 125 mg/kg and the “Insulin Level compared with vehicle” value was “Lower”.

For `CC(=O)NCCOC(=O)C(Oc1cc(C(F)(F)F)cc(C(F)(F)F)c1)c1ccc(C(F)(F)F)cc1` (stereo not shown) [Compound 143], in assay [2], the minimal effective dose is at most 125 mg/kg and the “Insulin Level compared with vehicle” value is given as “Lower”.

Regarding `O=C(O)C(Oc1cc(C(F)(F)F)cc(C(F)(F)F)c1)c1ccc(C(F)(F)F)cc1` (stereo not shown) [Compound 81], in assay [2], the minimal effective dose is at most 125 mg/kg and the “Insulin Level compared with vehicle” value is “Lower”.

Turning to `CC(=O)NCCOC(=O)C(Oc1cccc(C(F)(F)F)c1)c1ccc(C(F)(F)F)cc1` (stereo not shown) [Compound 142], in assay [2], the minimal effective dose is at most 125 mg/kg and the “Insulin Level compared with vehicle” value is reported as “Lower”.

`CC(Oc1ccc(C(F)(F)F)cc1)(C(=O)O)c1cccc(C(F)(F)F)c1` (stereo not shown) [Compound 120, 2-(4-trifluoromethyl-phenoxy)-2-(3-trifluoromethyl-phenyl)propionic acid]: in assay [2], the minimal effective dose is at most 125 mg/kg and the “Insulin Level compared with vehicle” value is “Lower”.

Consider `CC(=O)NCCOC(=O)C(Oc1cccc(C(F)(F)F)c1)c1cccc(C(F)(F)F)c1` (stereo not shown) [Compound 144], for which, in assay [2], the minimal effective dose is at most 125 mg/kg and the “Insulin Level compared with vehicle” value is listed as “Lower”.

Turning to `O=C(O)C(Oc1ccccc1-c1nc2ccccc2o1)c1cccc(C(F)(F)F)c1` (racemic) [Compound I-3], in assay [1], the “Insulin Level compared with vehicle” value is on record as “Lower” and the “Potency (glucose lowering)” value is recorded as “+ (effective for glucose lowering at the dose of ≧125 mg/kg)”.

On to `O=C(O)C(Oc1ccc(C(F)(F)F)cc1)c1ccc(C(F)(F)F)cc1` (stereo not shown) [Compound 83], for which, in assay [2], the minimal effective dose is at most 125 mg/kg and the “Insulin Level compared with vehicle” value is reported as “Lower”.

In the case of `O=C(O)C(Oc1ccc(Cl)cc1-c1nc2ccccc2o1)c1cccc(Cl)c1` (racemic) [Compound I-194], in assay [1], the “Insulin Level compared with vehicle” value is on record as “Lower” and the “Potency (glucose lowering)” value is “+++ (effective for glucose lowering at a dose of ≦25 mg/kg)”.

As to `O=C(O)C(Oc1cccc(C(F)(F)F)c1)c1ccc(C(F)(F)F)cc1` (stereo not shown) [Compound 86], in assay [2], the minimal effective dose is at most 125 mg/kg and the “Insulin Level compared with vehicle” value is given as “Lower”.

For the molecule `CC(Oc1ccc(C(F)(F)F)cc1-c1nc2ccccc2o1)(C(=O)O)c1ccccc1` (stereo not shown) [Ia-365], in assay [1], the “Insulin Level compared with vehicle” value is reported as “Lower” and the “Potency (glucose lowering)” value is “+++ (effective for glucose lowering at a dose of ≦25 mg/kg)”.
